# Target: T1, Human M4 (Homo sapiens, UniProt P08173)
# T1 construct: expressed in transfected cells
# T1 sequence (P08173 1-479): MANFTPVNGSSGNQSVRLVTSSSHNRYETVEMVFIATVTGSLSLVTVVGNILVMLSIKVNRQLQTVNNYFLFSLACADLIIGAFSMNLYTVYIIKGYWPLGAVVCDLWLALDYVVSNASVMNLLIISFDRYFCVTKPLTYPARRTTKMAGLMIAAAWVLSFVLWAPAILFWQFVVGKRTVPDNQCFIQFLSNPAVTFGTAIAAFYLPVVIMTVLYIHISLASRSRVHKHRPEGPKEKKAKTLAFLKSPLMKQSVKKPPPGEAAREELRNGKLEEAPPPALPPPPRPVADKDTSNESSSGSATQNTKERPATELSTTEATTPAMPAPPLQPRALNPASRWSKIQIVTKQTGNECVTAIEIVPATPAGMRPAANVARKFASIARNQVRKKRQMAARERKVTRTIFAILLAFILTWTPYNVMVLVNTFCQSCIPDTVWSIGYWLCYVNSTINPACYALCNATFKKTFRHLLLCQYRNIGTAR
# Experiment: mAChR M4 cell-based functional assay (calcium flux, PAM mode)
# Settings: hM4-Gqi5 CHO-K1 cells; for Emax at 30 µM: CHO-K1, % ACh maximum at 30 μM; for EC50: concentration-dependent increase in the EC20 acetylcholine response
# Method: Human and rat M4 cDNAs, along with the chimeric G protein Gqi5, were transfected into Chinese hamster ovary (CHO-K1) cells purchased from the American Type Culture Collection using Lipofectamine2000. hM4-Gqi5 cells were grown in Ham's F-12 medium containing 10% heat-inactivated fetal bovine serum (FBS), 20 mM HEPES, 50 μg/mL G418 sulfate, and 500 μg/mL Hygromycin B. rM4-Gqi5 cells were grown in DMEM containing 10% heat-inactivated FBS, 20 mM HEPES, 400 μg/mL G418 sulfate, and 500 μg/mL Hygromycin B.
# For high throughput measurement of agonist-evoked increases in intracellular calcium, CHO-K1 cells stably expressing muscarinic receptors were plated in growth medium lacking G418 and hygromycin at 15,000 cells/20 μL/well in Greiner 384-well black-walled, tissue culture (TC)-treated, clear-bottom plates (VWR). Cells were incubated overnight at 37° C. and 5% CO2. The next day, cells were washed using an ELX 405 (BioTek) with assay buffer; the final volume was then aspirated to 20 μL. Next, 20 μL of a 2.3 μM stock of Fluo-4/acetoxymethyl ester (Invitrogen, Carlsbad, CA), prepared as a 2.3 mM stock in DMSO and mixed in a 1:1 ratio with 10% (w/v) Pluronic F-127 and diluted in assay buffer, was added to the wells and the cell plates were incubated for 50 min at 37° C. and 5% CO2. Dye was removed by washing with the ELX 405 and the final volume was aspirated to 20 μL. Compound master plates were formatted in an 11 point concentration-response curve (CRC) format (1:3 dilutions) in 100% DMSO with a starting concentration of 10 mM using a BRAVO liquid handler (Agilent). Test compound CRCs were then transferred to daughter plates (240 nL) using the Echo acoustic plate reformatter (Labcyte, Sunnyvale, CA) and then diluted into assay buffer (40 μL) to a 2× stock using a Thermo Fisher Combi (Thermo Fisher Scientific, Waltham, MA).
# Calcium flux was measured using the Functional Drug Screening System (FDSS) 6000 or 7000 (Hamamatsu Corporation, Tokyo, Japan) as an increase in the fluorescent static ratio. Compounds were applied to cells (20 μL, 2×) using the automated system of the FDSS at 2-4 seconds into the protocol and the data were collected at 1 Hz. At 144 seconds, 10 μL of an EC20 concentration of the muscarinic receptor agonist acetylcholine was added (5×), followed by the addition of 12 μL of an EC80 concentration of acetylcholine at the 230 second time point (5×). Agonist activity was analyzed as a concentration-dependent increase in calcium mobilization upon compound addition. Positive allosteric modulator activity was analyzed as a concentration-dependent increase in the EC20 acetylcholine response. Antagonist activity was analyzed as a concentration-dependent decrease in the EC80 acetylcholine response. Concentration-response curves were generated using a four-parameter logistical equation in XLFit curve fitting software (IDBS, Bridgewater, NJ) for Excel (Microsoft, Redmond, WA) or Prism (GraphPad Software, Inc., San Diego, CA).
# Compounds were synthesized as described above. Activity (EC50 and Emax) was determined in the mAChR M4 cell-based functional assay as described above and the data are shown in Table 2. The compound number corresponds to the compound numbers used in Examples 1 to 11 and Tables 1.
Emax at 30 µM,EC50,SMILES
79%,0.224 µM,"Cc1cc(=O)n2nc(N3CC[C@H](Oc4ccc5c(c4)OCCO5)[C@H](F)C3)c(C)cc2n1 [Compound 44, 7-((3R,4S)-4-((2,3-dihydrobenzo[b][1,4]dioxin-6-yl)oxy)-3-fluoropiperidin-1-yl)-2,8-dimethyl-4H-pyrimido[1,2-b]pyridazin-4-one]"
36%,1.8 µM,"[2H]C1([2H])Oc2ccc(OC3CCN(c4cc(C)c5nccc(=O)n5n4)CC3)cc2OC1([2H])[2H] [Compound 22, 7-(4-((2,3-dihydrobenzo[b][1,4]dioxin-6-yl-2,2,3,3-d4)oxy)piperidin-1-yl)-9-methyl-4H-pyrimido[1,2-b]pyridazin-4-one]"
93%,0.009 µM,"[2H]C1(Oc2ccc3c(c2)OCCO3)CCN(c2nn3c(=O)c(F)c(C)nc3cc2C)CC1 [Compound 50, 7-(4-((2,3-dihydrobenzo[b][1,4]dioxin-6-yl)oxy)piperidin-1-yl-4-d)-3-fluoro-2,8-dimethyl-4H-pyrimido[1,2-b]pyridazin-4-one]"
114%,0.051 µM,"[2H]C1([2H])Oc2ccc(O[C@H]3CCN(c4nn5c(=O)ccnc5c(C)c4C)C[C@H]3F)cc2OC1([2H])[2H] [Compound 119, 7-((3R,4S)-4-((2,3-dihydrobenzo[b][1,4]dioxin-6-yl-2,2,3,3-d4)oxy)-3-fluoropiperidin-1-yl)-8,9-dimethyl-4H-pyrimido[1,2-b]pyridazin-4-one]"
99%,,"Cc1cc2nccc(=O)n2nc1N1CC[C@H](Oc2ccc3c(c2)OCCO3)C[C@H]1C [Compound 108, 7-((2R,4S)-4-((2,3-Dihydrobenzo[b][1,4]dioxin-6-yl)oxy)-2-methylpiperidin-1-yl)-8-methyl-4H-pyrimido[1,2-b]pyridazin-4-one]"
80%,0.135 µM,"Cc1cc2nccc(=O)n2nc1N1CC[C@@H](Oc2ccc3c(c2)OCCCO3)[C@H](F)C1 [Compound 55, 7-((3R,4R)-4-((3,4-dihydro-2H-benzo[b][1,4]dioxepin-7-yl)oxy)-3-fluoropiperidin-1-yl)-8-methyl-4H-pyrimido[1,2-b]pyridazin-4-one]"
114%,0.153 µM,"[2H]C1([2H])Oc2ccc(OC3CCN(c4nn5c(=O)c(N6CCC6)cnc5cc4C)CC3)cc2OC1([2H])[2H] [Compound 35, 3-(azetidin-1-yl)-7-(4-((2,3-dihydrobenzo[b][1,4]dioxin-6-yl-2,2,3,3-d4)oxy)piperidin-1-yl)-8-methyl-4H-pyrimido[1,2-b]pyridazin-4-one]"
111%,0.094 µM,"[2H]C1([2H])Oc2ccc(O[C@H]3CCN(c4nn5c(=O)cc(COC)nc5c(C)c4C)C[C@H]3F)cc2OC1([2H])[2H] [Compound 122, 7-((3R,4S)-4-((2,3-dihydrobenzo[b][1,4]dioxin-6-yl-2,2,3,3-d4)oxy)-3-fluoropiperidin-1-yl)-2-(methoxymethyl)-8,9-dimethyl-4H-pyrimido[1,2-b]pyridazin-4-one]"
70%,> 10 µM,"COCc1ncc(OC2CCN(c3nn4c(=O)ccnc4cc3C)CC2)cc1C [Compound 93, 7-(4-((6-(methoxymethyl)-5-methylpyridin-3-yl)oxy)piperidin-1-yl)-8-methyl-4H-pyrimido[1,2-b]pyridazin-4-one]"
95%,0.076 µM,"Cc1ccc(OC2CCN(c3nn4c(=O)cc(C(F)F)nc4c(C)c3C)CC2)cn1 [Compound 78, 2-(difluoromethyl)-8,9-dimethyl-7-(4-((6-methylpyridin-3-yl)oxy)piperidin-1-yl)-4H-pyrimido[1,2-b]pyridazin-4-one]"
109%,0.101 µM,"[2H]C1([2H])Oc2ccc(O[C@@H]3CCN(c4nn5c(=O)cc(COC)nc5c(C)c4C)C[C@H]3F)cc2OC1([2H])[2H] [Compound 124, 7-((3R,4R)-4-((2,3-dihydrobenzo[b][1,4]dioxin-6-yl-2,2,3,3-d4)oxy)-3-fluoropiperidin-1-yl)-2-(methoxymethyl)-8,9-dimethyl-4H-pyrimido[1,2-b]pyridazin-4-one]"
96%,0.11 µM,"Cc1cc2nccc(=O)n2nc1N1CC[C@@H](Oc2ccc3c(c2)OCCO3)[C@@H](C)C1 (single isomer, unassigned) [Compound 113, 7-((3R,4S) or (3S,4R))-4-(2,3-dihydrobenzo[b][1,4]dioxin-6-yl)oxy)-3-methylpiperidin-1-yl)-8-methyl-4H-pyrimido[1,2-b]pyridazin-4-one]"
95%,0.021 µM,"Cc1c(N2CCC(Oc3ccc4c(c3)OCCO4)CC2)nn2c(=O)ccnc2c1C [Compound 71, 7-(4-((2,3-dihydrobenzo[b][1,4]dioxin-6-yl)oxy)piperidin-1-yl)-8,9-dimethyl-4H-pyrimido[1,2-b]pyridazin-4-one]"
81%,1.47 µM,"[2H]C1(Oc2ccc3c(c2)OC([2H])([2H])C([2H])([2H])O3)CCN(c2nn3c(=O)cc(CC4CCCC4)nc3c(C)c2C)CC1 [Compound 101, 2-(cyclopentylmethyl)-7-(4-((2,3-dihydrobenzo[b][1,4]dioxin-6-yl-2,2,3,3-d4)oxy)piperidin-1-yl-4-d)-8,9-dimethyl-4H-pyrimido[1,2-b]pyridazin-4-one]"
76%,2.18 µM,"Cc1c(N2CCC(Oc3ccc(C(F)(F)F)cc3)CC2)nn2c(=O)ccnc2c1C [Compound 80, 8,9-dimethyl-7-(4-(4-(trifluoromethyl)phenoxy)piperidin-1-yl)-4H-pyrimido[1,2-b]pyridazin-4-one]"
85%,0.099 µM,"[2H]C1(Oc2ccc3c(c2)OC([2H])([2H])C([2H])([2H])O3)CCN(c2nn3c(=O)cc(C(C)C)nc3c(C)c2C)CC1 [Compound 96, 7-(4-((2,3-dihydrobenzo[b][1,4]dioxin-6-yl-2,2,3,3-d4)oxy)piperidin-1-yl-4-d)-2-isopropyl-8,9-dimethyl-4H-pyrimido[1,2-b]pyridazin-4-one]"
76%,0.358 µM,"Cc1c(N2CCC(Oc3ccc(Cl)cc3)CC2)nn2c(=O)cc(C(F)F)nc2c1C [Compound 79, 7-(4-(4-chlorophenoxy)piperidin-1-yl)-2-(difluoromethyl)-8,9-dimethyl-4H-pyrimido[1,2-b]pyridazin-4-one]"
118%,0.06 µM,"[2H]C1(Oc2ccc3c(c2)OC([2H])([2H])C([2H])([2H])O3)CCN(c2nn3c(=O)cc(C)nc3cc2C)CC1 [Compound 40, 7-(4-((2,3-dihydrobenzo[b][1,4]dioxin-6-yl-2,2,3,3-d4)oxy)piperidin-1-yl-4-d)-2,8-dimethyl-4H-pyrimido[1,2-b]pyridazin-4-one]"
108%,0.087 µM,"[2H]C1([2H])Oc2ccc(O[C@@H]3CCN(c4nn5c(=O)cc(COC)nc5cc4C)C[C@H]3F)cc2OC1([2H])[2H] [Compound 125, 7-((3R,4R)-4-((2,3-dihydrobenzo[b][1,4]dioxin-6-yl-2,2,3,3-d4)oxy)-3-fluoropiperidin-1-yl)-2-(methoxymethyl)-8-methyl-4H-pyrimido[1,2-b]pyridazin-4-one]"

# Source: patent US11884676B2, “Substituted pyrimido[1,2-b]pyridazines as positive allosteric modulators of the muscarinic acetylcholine receptor M4” (Vanderbilt University, priority 2020, dated 2024)
